Test results from patent publication US7528148B2, “Pyrazolo[3,4-B]pyridine compounds, and their use as phosphodiesterase inhibitors” (Glaxo Group Limited, priority 2002, dated 2009).

These compounds were tested against T1, PDE4B (human recombinant) (Homo sapiens, UniProt Q07343) (assay: PDE4B inhibition, radioactive SPA or IMAP fluorescence polarisation (FP) assay). Conditions: one reading or average of ca. 2-6 readings, accurate only to about ±0.5 log unit, read-out: PDE4B pIC50 (±about 0.5) (converted).
T1 construct: made in house; host or cells: Saccharomyces cerevisiae strain GL62 (PDE-deficient)
Type: biochemical
Source text: Human recombinant PDE4B, in particular the 2B splice variant thereof (HSPDE4B2B), is disclosed in WO 94/20079 and also M. M. McLaughlin et al., “A low Km, rolipram-sensitive, cAMP-specific phosphodiesterase from human brain: cloning and expression of cDNA, biochemical characterisation of recombinant protein, and tissue distribution of mRNA”, J. Biol. Chem., 1993, 268, 6470-6476. Human recombinant PDE4B was expressed in the PDE-deficient yeast Saccharomyces cerevisiae strain GL62. 100,000×g supernatant fractions of yeast cell lysates were used for PDE4B assays and inhibitor studies.
The ability of compounds to inhibit catalytic activity at PDE4B or 4D (human recombinant), PDE3 (from bovine aorta) or PDE5 (human recombinant) or PDE6 (from bovine retina) was determined by Scintillation Proximity Assay (SPA) in 96-well format. Test compounds (preferably as a solution in DMSO, e.g. about 2 microlitre (ul) volume of DMSO solution) were preincubated at ambient temperature (room temperature, e.g. 19-23° C.) in Wallac Isoplates (code 1450-514) with PDE enzyme in 50 mM Tris-HCl buffer pH 7.5, 8.3 mM MgCl2, 1.7 mM EGTA, 0.05% (w/v) bovine serum albumin for 10-30 minutes (usually 30 minutes). The enzyme concentration was adjusted so that no more than 20% hydrolysis of the substrate defined below occurred in control wells without compound, during the incubation. For PDE3, PDE4B and PDE4D assays, [5′,8-^3H]Adenosine 3′,5′-cyclic phosphate (Amersham Pharmacia Biotech, code TRK.559; or Amersham Biosciences UK Ltd, Pollards Wood, Chalfont St Giles, Buckinghamshire HP8 4SP, UK) was added to give 0.05 uCi per well and ˜10 nM final concentration. For the PDE5 and PDE6 assay [8-^3H]Guanosine 3′,5′-cyclic phosphate (Amersham Pharmacia Biotech, code TRK.392) was added to give 0.05 uCi per well and ˜36 nM final concentration. Plates, preferably containing approx. 100 ul volume of assay mixture, were mixed on an orbital shaker for 5 minutes and incubated at ambient temperature for 1 hour. Phosphodiesterase SPA beads (Amersham Pharmacia Biotech, code RPNQ 0150) were added (˜1 mg per well) to terminate the assay. Plates were sealed and shaken and allowed to stand at ambient temperature for 35 minutes to 1 hour (preferably 35 minutes) to allow the beads to settle. Bound radioactive product was measured using a WALLAC TRILUX 1450 Microbeta scintillation counter. For inhibition curves, 10 concentrations ([…]) of each compound were assayed. Curves were analysed using ActivityBase and XLfit (ID Businesss Solutions Limited, 2 Ocean Court, Surrey Research Park, Guildford, Surrey GU2 7QB, United Kindgom) Results were expressed as pIC50 values.
The ability of compounds to inhibit catalytic activity at PDE4B (human recombinant) or PDE4D (human recombinant) was determined by IMAP Fluorescence Polarisation (FP) assay (IAP Explorer kit, available from Molecular Devices Corporation, Sunnydale, Calif., USA; Molecular Devices code: R8062) in 384-well format. The IMAP FP assay is able to measure PDE activity in an homogenous, non-radioactive assay format. The FP assay uses the ability of immobilised trivalent metal cations, coated onto nanoparticles (tiny beads), to bind the phosphate group of Fl-AMP that is produced on the hydrolysis of fluorescein-labelled (Fl) cyclic adenosine mono-phosphate (Fl-cAMP) to the non-cyclic Fl-AMP form. […] Binding of Fl-AMP product to the beads (coated with the immobilised trivalent cations) slows the rotation of the bound Fl-AMP and leads to an increase in the fluorescence polarisation ratio of parallel to perpendicular light. Inhibition of the PDE reduces/inhibits this signal increase. […]

T1 sequence (Q07343 1-564 isoform Q07343-2): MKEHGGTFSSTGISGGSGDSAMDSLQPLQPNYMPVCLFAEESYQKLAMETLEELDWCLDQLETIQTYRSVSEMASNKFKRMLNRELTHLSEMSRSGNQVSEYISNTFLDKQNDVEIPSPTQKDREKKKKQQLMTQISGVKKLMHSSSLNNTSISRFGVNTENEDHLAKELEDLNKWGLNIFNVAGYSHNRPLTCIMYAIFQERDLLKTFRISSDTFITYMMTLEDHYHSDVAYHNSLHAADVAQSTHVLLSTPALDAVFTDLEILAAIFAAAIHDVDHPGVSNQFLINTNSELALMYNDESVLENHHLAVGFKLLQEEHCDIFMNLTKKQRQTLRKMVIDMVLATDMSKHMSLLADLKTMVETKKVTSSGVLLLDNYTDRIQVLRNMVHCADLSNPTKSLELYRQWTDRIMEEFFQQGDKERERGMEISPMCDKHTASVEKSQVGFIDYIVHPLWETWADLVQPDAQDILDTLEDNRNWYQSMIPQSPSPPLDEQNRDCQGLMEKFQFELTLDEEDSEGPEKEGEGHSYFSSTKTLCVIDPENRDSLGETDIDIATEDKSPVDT

SMILES	IC50 [nM]
CCn1ncc2c(NC3CCOCC3)c(-c3nnc(CN4CCN(C)CC4)o3)cnc21 [Example 35, 1-Ethyl-5-{5-[(4-methylpiperazin-1-yl)methyl]-1,3,4-oxadiazol-2-yl}-N-(tetrahydro-2H-pyran-4-yl)-1H-pyrazolo[3,4-b]pyridin-4-amine]	31.6
CCn1ncc2c(NC3CCOCC3)c(-c3nnc(C(C)(C)C)o3)cnc21 [Example 17, 5-(S-Tert-butyl-1,3,4-oxadiazol-2-yl)-1-ethyl-N-(tetrahydro-2H-pyran-4-yl)-1H-pyrazolo[3,4-b]pyridin-4-amine]	0.794 to 31.6
CCn1ncc2c(NC3CCOCC3)c(-c3nnc(CS(C)(=O)=O)o3)cnc21 [Example 23, 1-Ethyl-5-{5-[(methylsulfonyl)methyl]-1,3,4-oxadiazol-2-yl}-N-(tetrahydro-2H-pyran-4-yl)-1H-pyrazolo[3,4-b]pyridin-4-amine]	7.94
CCn1ncc2c(NC3CCOCC3)c(-c3nnc(C)o3)cnc21 [Example 14, 1-Ethyl-5-(5-methyl-1,3,4-oxadiazol-2-yl)-N-(tetrahydro-2H-pyran-4-yl)-1H-pyrazolo[3,4-b]pyridin-4-amine]	25.1
CCn1ncc2c(NC3CCOCC3)c(-c3nnc(C4CCOCC4)o3)cnc21 [Example 38, 1-Ethyl-N-(tetrahydro-2H-pyran-4-yl)-5-[5-(tetrahydro-2H-pyran-4-yl)-1,3,4-oxadiazol-2-yl]-1H-pyrazolo[3,4-b]pyridin-4-amine]	0.794 to 31.6
